Test [1] relates to IL-2 release from stimulated Jurkat cells. As to the kind of experiment: Human IL-2 Release Phenotypic Assay (Assay 3). It counts as cell-based. Conditions: Jurkat cells (clone E6-1), 200 ng/mL PMA + 300 ng/mL ionomycin, IL-2 by ELISA. As to the method: This assay measured the inhibition by MALT1 inhibitors of the IL-2 release from stimulated Jurkat cells, a human immortalized T lymphocyte cell line. IL-2 production from Jurkat cells is regulated by activation of NFκB signalling, which is in turn regulated by MALT1 protease activity.
Jurkat cells (clone E6-1, ATCC) were cultured in RPMI1640 supplemented with 10% (v/v) FBS and 1% (v/v) penicillin/streptomycin (100× liquid stocks). Cells were seeded in 96-well white tissue culture-treated plates (Perkin Elmer) at 50 000 cells/well and incubated overnight at 37° C., 5% CO2. Test compounds in DMSO at half-log dilutions were added to the cells and incubated for 30 mins. Final DMSO concentration was 0.5%. Cells were then stimulated with 200 ng/mL PMA+300 ng/mL ionomycin and incubated for 48 hours. […] IC50 values were calculated using GraphPad Prism using 4-parameter non-linear regression curve fit.
In general terms: In an ELISA, binding on a coated surface is turned into a signal by an enzyme label.

The next test deals with T1, FL hMALT1 enzyme (Homo sapiens, UniProt Q9UDY8).
T1 sequence (Q9UDY8 1-824): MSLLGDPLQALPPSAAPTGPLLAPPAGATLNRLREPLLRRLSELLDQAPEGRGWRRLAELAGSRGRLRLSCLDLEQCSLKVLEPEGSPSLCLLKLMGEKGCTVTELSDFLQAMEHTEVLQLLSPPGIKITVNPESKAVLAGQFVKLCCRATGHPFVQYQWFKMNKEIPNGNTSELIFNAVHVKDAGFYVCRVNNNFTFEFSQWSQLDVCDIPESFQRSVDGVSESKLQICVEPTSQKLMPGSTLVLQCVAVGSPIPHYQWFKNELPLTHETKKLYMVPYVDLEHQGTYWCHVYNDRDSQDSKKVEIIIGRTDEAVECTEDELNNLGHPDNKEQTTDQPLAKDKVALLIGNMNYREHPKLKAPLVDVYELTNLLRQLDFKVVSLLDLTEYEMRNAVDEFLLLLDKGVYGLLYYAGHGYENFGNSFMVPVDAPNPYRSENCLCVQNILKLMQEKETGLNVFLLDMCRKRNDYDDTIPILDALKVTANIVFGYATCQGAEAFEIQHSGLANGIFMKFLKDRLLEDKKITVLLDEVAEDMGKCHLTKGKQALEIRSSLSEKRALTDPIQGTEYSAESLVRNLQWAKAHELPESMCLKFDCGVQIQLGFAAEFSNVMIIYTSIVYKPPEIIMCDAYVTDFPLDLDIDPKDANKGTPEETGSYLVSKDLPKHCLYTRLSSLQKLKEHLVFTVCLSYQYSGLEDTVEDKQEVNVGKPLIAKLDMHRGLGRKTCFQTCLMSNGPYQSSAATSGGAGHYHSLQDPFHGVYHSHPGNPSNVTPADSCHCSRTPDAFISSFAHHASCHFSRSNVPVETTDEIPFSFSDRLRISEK
Briefly: biochemical.

The term IC50 denotes the concentration that inhibits the measured activity by half.

Regarding `CN(C(=O)c1cc[nH]c(=O)c1)C(c1ccc(NC2Cc3ccccc3C2(C)C)nc1)C(F)(F)F` (single isomer, unassigned) [Example 100, N-(1-(6-((1,1-Dimethyl-2,3-dihydro-1H-inden-2-yl)amino)pyridin-3-yl)-2,2,2-trifluoroethyl)-N-methyl-2-oxo-1,2-dihydropyridine-4-carboxamide], the IC50 in test [1] (48 hours) was 0.85 µM.

Regarding `CN(C(=O)N1CCC(C)(O)CC1)[C@@H](c1ccc(NC2Cc3ccccc3C2(C)C)cc1)C(F)(F)F` (single isomer, unassigned) [Example 17], in test [1] (48 hours), the IC50 turned out to be 2.95 µM.

`CN(C(=O)N1CCC(C)(O)CC1)[C@@H](c1ccc(NC2Cc3ccccc3C2(C)C)cc1)C(F)(F)F` (single isomer, unassigned) [Example 16]: the IC50 in test [1] (48 hours) amounted to 0.25 µM.

For the compound `CC(=O)N[C@H]1C[C@@H](C(=O)N(C)[C@@H](c2ccc(N[C@H]3Cc4ccccc4C3(C)C)cn2)C(F)(F)F)C1` [Example 182, (1,3-cis)-3-Acetamido-N—((S)-1-(5-(((S)-1,1-dimethyl-2,3-dihydro-1H-inden-2-yl)amino)pyridin-2-yl)-2,2,2-trifluoroethyl)-N-methylcyclobutane-1-carboxamide], the IC50 in test [1] (Homo sapiens, Jurkat, 48 h) was 0.4 µM.

Turning to `CN(C(=O)C1CCS(=O)(=O)CC1)[C@@H](c1ccc(NC2Cc3ccccc3C2)cc1)C(F)(F)F` [Example 3, (S)—N-(1-(4-((2,3-Dihydro-1H-inden-2-yl)amino)phenyl)-2,2,2-trifluoroethyl)-N-methyltetrahydro-2H-thiopyran-4-carboxamide 1,1-dioxide], the IC50 in test [1] (Homo sapiens, Jurkat, 48 h) is 1.94 µM.

At FL hMALT1 enzyme, `CN(C(=O)[C@@H]1CNC(=O)C1)[C@@H](c1ccc(NC2Cc3ccc(Cl)c(Cl)c3C2)cn1)C(F)(F)F` (single isomer, unassigned) [Example 318] displayed a half-maximal inhibitory concentration (IC50) of 0.66 µM.

`Cc1nnc(N2CC(C(=O)N(C)[C@@H](c3ccc(NC4Cc5ccc(Cl)c(F)c5C4)cn3)C(F)(F)F)C2)o1` (single isomer, unassigned) [Example 365] displayed an IC50 against FL hMALT1 enzyme of 3.64 µM.

Regarding `CN(C(=O)[C@@H]1CC[C@H](NC(=O)C(F)(F)F)C1)[C@@H](c1ccc(N[C@H]2Cc3ccccc3C2(C)C)cn1)C(F)(F)F` [Example 184, (1R,3S)—N—((S)-1-(5-(((S)-1,1-Dimethyl-2,3-dihydro-1H-inden-2-yl)amino)pyridin-2-yl)-2,2,2-trifluoroethyl)-N-methyl-3-(2,2,2-trifluoroacetamido)cyclopentane-1-carboxamide], it took 0.15 µM to reach half-maximal inhibition against FL hMALT1 enzyme (IC50).

Compound `CN(C(=O)C1CC2(CCN2CCO)C1)[C@@H](c1ccc(NC2Cc3ccccc3C2(C)C)cn1)C(F)(F)F` (single isomer, unassigned) [Example 248] returned a concentration for half-maximal inhibition (IC50) at FL hMALT1 enzyme of 0.14 µM.

Compound `CN(C(=O)C1CC2(CCN2)C1)[C@@H](c1ccc(NC2Cc3ccccc3C2(C)C)cn1)C(F)(F)F` (single isomer, unassigned) [Example 155] registered an IC50 against FL hMALT1 enzyme of 0.18 µM.

Regarding `CN(C(=O)C1CCS(=O)(=O)C1)[C@@H](c1ccc(NC2Cc3ccc(Cl)c(Cl)c3C2)cn1)C(F)(F)F` (single isomer, unassigned) [Example 357], the IC50 against FL hMALT1 enzyme is 0.69 µM.

`CN(C(=O)[C@H]1CCC(=O)NC1)[C@@H](c1ccc(NC2Cc3ccc(Cl)c(F)c3C2)cn1)C(F)(F)F` (single isomer, unassigned) [Example 336] had a half-inhibitory concentration (IC50) on FL hMALT1 enzyme of 0.69 µM.

For the compound `CN(C(=O)C1CCS(=O)(=O)CC1)[C@@H](c1ccc(NC2Cc3ccc(Cl)c(F)c3C2)cn1)C(F)(F)F` (single isomer, unassigned) [Example 276], on FL hMALT1 enzyme, 0.78 µM corresponded to half-maximal inhibition (IC50).

In the case of `CN(C(=O)C1CCS(=O)(=O)CC1)[C@@H](c1ccc(NC2Cc3cc(Cl)cc(Cl)c3C2)cn1)C(F)(F)F` (single isomer, unassigned) [Example 283], on FL hMALT1 enzyme, the IC50 amounted to 0.91 µM.

As for `CN(C(=O)[C@H]1CNC(=O)C1)[C@@H](c1ccc(NC2Cc3ccc(Cl)c(Cl)c3C2)nc1)C(F)(F)F` (single isomer, unassigned) [Example 346], the IC50 against FL hMALT1 enzyme is 1.1 µM.

In turn, `CN(C(=O)C1CCNCC1)[C@@H](c1ccc(NC2Cc3ccccc3C2(C)C)nc1)C(F)(F)F` (single isomer, unassigned) [Example 148] returned a 50% inhibitory concentration (IC50) on FL hMALT1 enzyme of 0.29 µM.

In turn, `COc1cccc2c1CC(Nc1ccc([C@H](N(C)C(=O)C3CCS(=O)(=O)CC3)C(F)(F)F)nc1)C2` (single isomer, unassigned) [Example 178] showed an IC50 at FL hMALT1 enzyme of 0.26 µM.

With `CN(C(=O)C1CCS(=O)(=O)CC1)[C@@H](c1ccc(NC2Cc3cccc(C(F)(F)F)c3C2)nc1)C(F)(F)F` (single isomer, unassigned) [Example 280], half-maximal inhibition against FL hMALT1 enzyme (IC50) required 0.86 µM.

Consider `CN(C(=O)CO)[C@@H](c1ccc(NC2Cc3ccc(Cl)c(F)c3C2)cn1)C(F)(F)F` (single isomer, unassigned) [Example 366], for which the concentration for half-maximal inhibition (IC50) against FL hMALT1 enzyme came to 3.66 µM.

Regarding `CN(C(=O)C1CC2(CCC(=O)N2)C1)[C@@H](c1ccc(NC2Cc3ccc(Cl)c(Cl)c3C2)cn1)C(F)(F)F` (single isomer, unassigned) [Example 340], the IC50 against FL hMALT1 enzyme turned out to be 0.56 µM.

In the case of `CN(C(=O)C1CCS(=O)(=O)CC1)[C@@H](c1ccc(NC2Cc3ccc(C(F)(F)F)cc3C2)cn1)C(F)(F)F` (single isomer, unassigned) [Example 256], 1.1 µM corresponded to half-maximal inhibition at FL hMALT1 enzyme (IC50).

`CN(C(=O)C1CCS(=O)(=O)CC1)[C@@H](c1ccc(NC2Cc3cccc(F)c3C2)cn1)C(F)(F)F` (single isomer, unassigned) [Example 274] gave a half-maximal inhibitory concentration (IC50) against FL hMALT1 enzyme of 0.28 µM.

Compound `CN(C(=O)C1CCS(=O)(=O)CC1)[C@@H](c1ccc(NC2Cc3ccc(Cl)c(F)c3C2)nc1)C(F)(F)F` (single isomer, unassigned) [Example 331] came in with a concentration for half-maximal inhibition (IC50) against FL hMALT1 enzyme of 0.4 µM.

At FL hMALT1 enzyme, `CN(C(=O)C1CCS(=O)(=O)CC1)[C@@H](c1ccc(NC2Cc3cc(F)cc(Cl)c3C2)cn1)C(F)(F)F` (single isomer, unassigned) [Example 287] displayed an IC50 of 0.29 µM.

`CN(C(=O)C1CN(C(=O)C2CCOC2)C1)[C@@H](c1ccc(NC2Cc3ccc(Cl)c(Cl)c3C2)cn1)C(F)(F)F` (single isomer, unassigned) [Example 354] showed a half-inhibitory concentration (IC50) against FL hMALT1 enzyme of 1 µM.

`CN(C(=O)C1CCS(=O)(=O)CC1)[C@@H](c1ccc(NC2Cc3ccc(F)c(Cl)c3C2)cn1)C(F)(F)F` (single isomer, unassigned) [Example 266] yielded an IC50 against FL hMALT1 enzyme of 1.6 µM.

On FL hMALT1 enzyme, `CN(C(=O)C1CN2CCC1CC2)[C@@H](c1ccc(NC2Cc3ccccc3C2(C)C)nc1)C(F)(F)F` (single isomer, unassigned) [Example 121] came in with an IC50 of 0.51 µM.

Compound `CN(C(=O)C1CN(C(=O)C2COC2)C1)[C@@H](c1ccc(NC2Cc3ccc(Cl)c(F)c3C2)cn1)C(F)(F)F` (single isomer, unassigned) [Example 370] returned a half-maximal inhibitory concentration (IC50) against FL hMALT1 enzyme of 1.37 µM.

With `CN(C(=O)C1CCS(=O)(=O)CC1)[C@@H](c1ccc(NC2Cc3cc(F)cc(Cl)c3C2)cn1)C(F)(F)F` (single isomer, unassigned) [Example 286], the concentration for half-maximal inhibition (IC50) at FL hMALT1 enzyme was found to be 0.73 µM.

`CN(C(=O)C1CC2(CCC(=O)N2)C1)[C@@H](c1ccc(NC2Cc3ccccc3C2(C)C)cn1)C(F)(F)F` (single isomer, unassigned) [Example 229] yielded an IC50 against FL hMALT1 enzyme of 0.14 µM.

`CN(C(=O)C1CN2CCC1CC2)[C@@H](c1ccc(NC2Cc3ccccc3C2(C)C)nc1)C(F)(F)F` (single isomer, unassigned) [Example 123]: at FL hMALT1 enzyme, the IC50 was 0.87 µM.

Turning to `CN(C(=O)C1COCC(=O)N1)[C@@H](c1ccc(NC2Cc3ccccc3C2(C)C)cn1)C(F)(F)F` (single isomer, unassigned) [Example 161], the IC50 on FL hMALT1 enzyme is 0.31 µM.

On FL hMALT1 enzyme, `CN(C(=O)C1CCS(=O)(=O)CC1)[C@@H](c1ccc(NC2Cc3c(F)ccc(F)c3C2)cn1)C(F)(F)F` [Example 273, (S)—N-(1-(5-((4,7-Difluoro-2,3-dihydro-1H-inden-2-yl)amino)pyridin-2-yl)-2,2,2-trifluoroethyl)-N-methyltetrahydro-2H-thiopyran-4-carboxamide 1,1-dioxide] displayed an IC50 of 0.46 µM.
